BindingDB's records for doi:10.1016/s0960-894x(03)00532-8 (British Biotech Pharmaceuticals, 2003)

Molecular target: Peptide deformylase (Escherichia coli) (UniProt P0A6K3)
Test: Inhibition against Escherichia coli peptide deformylase

Sequence of Peptide deformylase (Escherichia coli) (P0A6K3 whole entry, looked up): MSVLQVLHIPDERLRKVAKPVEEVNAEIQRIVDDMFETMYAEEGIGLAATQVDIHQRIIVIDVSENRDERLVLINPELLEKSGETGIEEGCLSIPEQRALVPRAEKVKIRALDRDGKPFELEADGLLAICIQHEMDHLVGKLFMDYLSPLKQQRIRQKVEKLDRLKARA

| IC50 | SMILES |
| --- | --- |
| 30 nM | CCCCCC[C@H](CN(O)C=O)C(=O)N[C@H](C(=O)N(C)C)C(C)(C)C [(R)-2-[(Formyl-hydroxy-amino)-methyl]-octanoic acid ((S)-1-dimethylcarbamoyl-2,2-dimethyl-propyl)-amide] |
| 20 nM | C=CCC[C@H](CN(O)C=O)C(=O)N[C@H](C(=O)N(C)C)C(C)(C)C [(R)-2-[(Formyl-hydroxy-amino)-methyl]-hex-5-enoic acid ((S)-1-dimethylcarbamoyl-2,2-dimethyl-propyl)-amide] |
| 70 nM | CC[C@H](CN(O)C=O)C(=O)N[C@H](C(=O)N(C)C)C(C)(C)C [(S)-2-{(R)-2-[(Formyl-hydroxy-amino)-methyl]-butyrylamino}-3,3,N,N-tetramethyl-butyramide] |
| 50 nM | CC(C)[C@H](CN(O)C=O)C(=O)N[C@H](C(=O)N(C)C)C(C)(C)C [(R)-N-((S)-1-Dimethylcarbamoyl-2,2-dimethyl-propyl)-2-[(formyl-hydroxy-amino)-methyl]-3-methyl-butyramide] |
| 30 nM | C=CC[C@H](CN(O)C=O)C(=O)N[C@H](C(=O)N(C)C)C(C)(C)C [(R)-2-[(Formyl-hydroxy-amino)-methyl]-pent-4-enoic acid ((S)-1-dimethylcarbamoyl-2,2-dimethyl-propyl)-amide] |
| 50 nM | CCCCCCCC[C@H](CN(O)C=O)C(=O)N[C@H](C(=O)N(C)C)C(C)(C)C [(R)-2-[(Formyl-hydroxy-amino)-methyl]-decanoic acid [1-((S)-dimethyl-carbamoyl)-2,2-dimethyl-propyl]-amide] |
| 20 nM | CN(C)C(=O)[C@@H](NC(=O)[C@@H](CN(O)C=O)C1CCCC1)C(C)(C)C [(S)-2-[(R)-2-Cyclopentyl-3-(formyl-hydroxy-amino)-propionylamino]-3,3,N,N-tetramethyl-butyramide] |
| 20 nM | CCSC[C@H](CN(O)C=O)C(=O)N[C@H](C(=O)N(C)C)C(C)(C)C [(S)-2-[(R)-2-Ethylsulfanylmethyl-3-(formyl-hydroxy-amino)-propionylamino]-3,3,N,N-tetramethyl-butyramide] |
| 30 nM | CC#CC[C@H](CN(O)C=O)C(=O)N[C@H](C(=O)N(C)C)C(C)(C)C [(R)-2-[(Formyl-hydroxy-amino)-methyl]-hex-4-ynoic acid ((S)-1-dimethylcarbamoyl-2,2-dimethyl-propyl)-amide] |
| 50 nM | CCC[C@H](CN(O)C=O)C(=O)N[C@H](C(=O)N(C)C)C(C)(C)C [(R)-2-[(Formyl-hydroxy-amino)-methyl]-pentanoic acid ((S)-1-dimethylcarbamoyl-2,2-dimethyl-propyl)-amide] |

Further lines, the compound ahead of its results:

| SMILES | IC50 |
| --- | --- |
| C[C@H](CN(O)C=O)C(=O)N[C@H](C(=O)N(C)C)C(C)(C)C [(S)-2-[(R)-3-(Formyl-hydroxy-amino)-2-methyl-propionylamino]-3,3,N,N-tetramethyl-butyramide] | 100 nM |
| CCCCCCC[C@H](CN(O)C=O)C(=O)N[C@H](C(=O)N(C)C)C(C)(C)C [(R)-2-[(Formyl-hydroxy-amino)-methyl]-nonanoic acid ((S)-1-dimethylcarbamoyl-2,2-dimethyl-propyl)-amide] | 40 nM |
| CCCC[C@@H](C(=O)N[C@H](C(=O)N(C)C)C(C)(C)C)C(C)N(O)C=O (stereo partly drawn) [(R)-2-[1-(Formyl-hydroxy-amino)-ethyl]-hexanoic acid ((S)-1-dimethylcarbamoyl-2,2-dimethyl-propyl)-amide] | 600 nM |
| CN(C)C(=O)[C@@H](NC(=O)[C@H](CC1CCCCC1)CN(O)C=O)C(C)(C)C [(S)-2-[(R)-2-Cyclohexylmethyl-3-(formyl-hydroxy-amino)-propionylamino]-3,3,N,N-tetramethyl-butyramide] | 6 nM |
| CN(C)C(=O)[C@@H](NC(=O)[C@H](Cc1ccccc1)CN(O)C=O)C(C)(C)C [(S)-2-[(R)-2-Benzyl-3-(formyl-hydroxy-amino)-propionylamino]-3,3,N,N-tetramethyl-butyramide] | 20 nM |
| CCCCC[C@H](CN(O)C=O)C(=O)N[C@H](C(=O)N(C)C)C(C)(C)C [(R)-2-[(Formyl-hydroxy-amino)-methyl]-heptanoic acid ((S)-1-dimethylcarbamoyl-2,2-dimethyl-propyl)-amide] | 10 nM |
| CC(C)CC[C@H](CN(O)C=O)C(=O)N[C@H](C(=O)N(C)C)C(C)(C)C [(R)-2-[(Formyl-hydroxy-amino)-methyl]-5-methyl-hexanoic acid ((S)-1-dimethylcarbamoyl-2,2-dimethyl-propyl)-amide] | 20 nM |
| CC(C)C[C@H](CN(O)C=O)C(=O)N[C@H](C(=O)N(C)C)C(C)(C)C [(R)-2-[(Formyl-hydroxy-amino)-methyl]-4-methyl-pentanoic acid ((S)-1-dimethylcarbamoyl-2,2-dimethyl-propyl)-amide] | 10 nM |
| CN(C)C(=O)[C@@H](NC(=O)[C@@H](CN(O)C=O)CN1CCCCC1)C(C)(C)C [(S)-2-{(R)-2-[(Formyl-hydroxy-amino)-methyl]-3-piperidin-1-yl-propionylamino}-3,3,N,N-tetramethyl-butyramide] | > 1000 nM |
